# Experimental data as given in patent US10265321B2, “Uses of salt-inducible kinase (SIK) inhibitors” (Dana-Farber Cancer Institute, Inc., priority 2014, dated 2019).
# pIC50: −log10 of the molar value.
# Columns and labels:
# [1] = system: Il10-Thy1.1 reporter in 10BiT BMDCs; test: Il10-Thy1.1 reporter gene detection in 10BiT BMDCs; format: cell-based, mouse; settings: 2 days treatment (0.5 μM), zymosan 18 hr
# Experimental: (§1) Bone marrow-derived DCs were differentiated from C57BL/6 bone marrow in the presence of GM-CSF-conditioned media. CD11c^+ CX3CR1^hi myeloid cells and CD11c^+ CX3CR1^− DCs were isolated from the small intestine lamina propria of Cx3cr1^eGFP/+ mice (12). Detection of cell-surface Thy1.1 expression on BMDCs from 10BiT reporter mice was conducted as described previously (24). Cell viability was estimated by change in total cellular ATP levels using CellTiterGlo assays (Promega). Preparation of recombinant SIK proteins and IC50 measurements were conducted as described previously (21). Total RNA was extracted using a NucleoSpin 96 RNA isolation kit (Macherey-Nagel) followed by cDNA synthesis and multiplex RT-PCR using a microfluidic dynamic array (Fluidigm). The concentrations of TNF-α, IL-6, IL-10, IL-12p40, IL-1β and RANTES in culture supernatants were detected using a FlexSet Cytometric bead array (BD Biosciences). Alternatively, IL-10 secretion was quantified using ELISA (BD Biosciences) or AlphaLISA (PerkinElmer) assays. NO production was estimated based on nitrate content in culture medium using the Greiss reagent.
# Preparation of BMDCs from 10BiT reporter mice expressing an il10-Thy1.1 transgene, SIK inhibitor treatment and zymosan stimulation was conducted as described above. […]
# Src = Src (Homo sapiens, UniProt P12931); settings: cited from earlier work
# human MΦs or DCs = test: Cytokine production by human macrophages and dendritic cells from PBMCs (ELISA); format: cell-based; settings: 0.5 μM, 24 hr, zymosan 18 hr
# Experimental: Heparinized blood from healthy donors was obtained from Research Blood Components. Peripheral blood mononuclear cells (PBMCs) were obtained by density centrifugation of blood diluted 50% (vol/vol) with PBS over Ficoll-Paque (Pharmacia Biotech). PBMCs were further purified by plastic adherence for 1 hr and washed 5× with PBS. Monocytes within the PBMC pool were differentiated towards DCs in X-VIVO media (Lonza) supplemented with IL-4 (50 ng/mL, R&D Systems) and GM-CSF (50 ng/mL, R&D Systems) or macrophages in X-VIVO media supplemented with GM-CSF (5 ng/mL) and IFN-γ (5 ng/mL; PeproTech) for 7 days as described previously (Smeekens S P, et al. (2013) Functional genomics identifies type I interferon pathway as central for host defense against Candida albicans. Nature communications 4:1342). After third day, half of the culture medium was replaced by fresh DC/macrophages differentiation medium.
# After stimulation of cells with microbial ligands, the culture medium was removed, clarified by centrifugation for 10 min at 14,000×g, and the concentration of TNF-α, IL-6, IL-10, IL-12p40, IL-1β and RANTES were measured using FlexSet Cytokine Bead Array (BD Biosciences) according to the manufacturer's instructions. Where indicated, ELISAs were used to detect IL-10 and IL-12p70 (BD Biosciences) according to the manufacturer's instructions. […]
# SGK = test: Protein kinase assay against SGK (selectivity); format: biochemical; settings: DMSO set to 100%
# SIK1 = biological target: T1, SIK1 (Homo sapiens, UniProt P57059); test: Protein kinase assay ([γ-32P] ATP, phosphocellulose paper) against SIK1; format: biochemical; settings: read-out: Enzyme Inhibition IC50 SIK1
# T1 construct: made in house
# Experimental: as §1, with “Total RNA was extracted using a NucleoSpin 96 RNA isolation kit (Macherey-Nagel) followed by cDNA synthesis and multiplex RT-PCR using a microfluidic dynamic array (Fluidigm).” left out, “NO production was estimated based on nitrate content in culture medium using the Greiss reagent.” left out
# In another set of experiments, the activities of the SIK inhibitors described herein against SIK were determined according to the methods reported in Hastie et al., Nature Protocols, 2006, 1, 968-971. […]
# The specific activity of the [γ-^32P] […] To measure the concentration of ATP, a sample of such a stock solution was diluted to 20 μM, and the absorbance of the diluted sample was measured at 259 nm. The absorbance of a 20-μM stock solution of ATP at 259 nm was about 0.31. […] ATP to produce a radioactivity of 1×10^5 to 1×10^6 c.p.m. per nmol. […]
# Chain of Src (P12931 whole entry, species assumed): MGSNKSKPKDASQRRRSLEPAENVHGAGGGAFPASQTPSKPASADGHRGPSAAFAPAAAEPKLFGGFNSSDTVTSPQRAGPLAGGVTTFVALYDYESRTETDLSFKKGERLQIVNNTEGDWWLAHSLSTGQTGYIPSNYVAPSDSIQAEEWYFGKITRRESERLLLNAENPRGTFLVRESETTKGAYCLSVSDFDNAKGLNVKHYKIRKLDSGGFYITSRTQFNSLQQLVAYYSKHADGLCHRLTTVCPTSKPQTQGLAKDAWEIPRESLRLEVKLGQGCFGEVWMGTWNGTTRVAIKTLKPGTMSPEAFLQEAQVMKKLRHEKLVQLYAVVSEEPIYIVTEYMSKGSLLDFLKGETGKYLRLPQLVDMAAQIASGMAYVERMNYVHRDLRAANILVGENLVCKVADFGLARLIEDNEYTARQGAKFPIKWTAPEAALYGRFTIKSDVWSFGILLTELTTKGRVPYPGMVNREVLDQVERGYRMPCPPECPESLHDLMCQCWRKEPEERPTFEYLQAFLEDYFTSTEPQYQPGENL
# T1 sequence (P57059 whole entry): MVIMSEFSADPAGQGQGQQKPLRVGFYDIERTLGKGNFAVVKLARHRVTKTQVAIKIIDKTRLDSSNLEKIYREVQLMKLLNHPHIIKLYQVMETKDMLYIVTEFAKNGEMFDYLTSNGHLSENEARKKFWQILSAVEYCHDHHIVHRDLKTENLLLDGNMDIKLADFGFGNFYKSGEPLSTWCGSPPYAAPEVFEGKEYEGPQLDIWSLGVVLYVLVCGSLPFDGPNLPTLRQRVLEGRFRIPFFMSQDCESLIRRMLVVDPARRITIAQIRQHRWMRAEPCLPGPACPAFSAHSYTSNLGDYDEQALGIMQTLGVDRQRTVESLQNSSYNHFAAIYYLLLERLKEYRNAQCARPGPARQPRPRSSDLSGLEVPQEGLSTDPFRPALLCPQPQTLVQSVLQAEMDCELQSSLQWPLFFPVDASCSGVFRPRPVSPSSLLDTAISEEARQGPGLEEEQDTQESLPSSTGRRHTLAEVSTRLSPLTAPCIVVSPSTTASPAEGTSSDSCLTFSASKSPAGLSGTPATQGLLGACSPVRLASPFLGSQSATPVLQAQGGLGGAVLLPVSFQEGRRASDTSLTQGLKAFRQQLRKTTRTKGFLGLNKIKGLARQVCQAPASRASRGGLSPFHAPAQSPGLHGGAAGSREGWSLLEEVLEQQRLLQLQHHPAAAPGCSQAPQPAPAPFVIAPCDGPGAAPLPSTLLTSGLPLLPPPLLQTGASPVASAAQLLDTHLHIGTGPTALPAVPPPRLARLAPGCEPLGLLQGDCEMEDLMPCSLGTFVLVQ
structure (smiles),measurement,setting,value
COc1ccc(N(C(=O)Nc2c(C)cccc2C)c2cc(Nc3ccc(N4CCN(C)CC4)cc3)ncn2)c(OC)c1 [HG-9-91-01],enhancement of the fraction of BMDCs expressing Il10 following zymosan stimulation,[1],more than 5 fold
same,Src activity remaining,Src,less than 4%
same,IL-10 production by human MΦs or DCs,human MΦs or DCs,enhanced IL-10 production
same,IL-12p70 secretion by human MΦs or DCs,human MΦs or DCs,dramatically reducing IL-12p70 secretion
Cc1cccc(C)c1NC(=O)N1C/C=C\COc2cccc(c2)Nc2cc1ncn2 [I-1],Activity of protein kinase treated with 0.1 μM of I-1 (% control (DMSO)) SGK,SGK; 0.1 μM,96 % control (DMSO)
same,Activity of protein kinase treated with 1 μM of I-1 (% control (DMSO)) SGK,SGK; 1 μM,100 % control (DMSO)
"CCN1CCN(c2ccc(Nc3cc(-n4ccnc4Nc4c(C)cccc4C)ncn3)cc2)CC1 [II-1, 6-(2-((2,6-dimethylphenyl)amino)-1H-imidazol-1-yl)-N-(4-(4-ethylpiperazin-1-yl)phenyl)pyrimidin-4-amine]",pIC50,SIK1,7.44
